Results on 50 compounds are retold here after patent US20090239841A1, “Diaryl Ureas as CB1 Antagonists” (priority 2004, published 2009).

In one assay the target is T1, hCB1 (Homo sapiens, UniProt P21554).
T1 construct: made in house; host or cells: Sf9 insect cells (baculovirus), P2 membranes
T1 sequence (P21554 whole entry): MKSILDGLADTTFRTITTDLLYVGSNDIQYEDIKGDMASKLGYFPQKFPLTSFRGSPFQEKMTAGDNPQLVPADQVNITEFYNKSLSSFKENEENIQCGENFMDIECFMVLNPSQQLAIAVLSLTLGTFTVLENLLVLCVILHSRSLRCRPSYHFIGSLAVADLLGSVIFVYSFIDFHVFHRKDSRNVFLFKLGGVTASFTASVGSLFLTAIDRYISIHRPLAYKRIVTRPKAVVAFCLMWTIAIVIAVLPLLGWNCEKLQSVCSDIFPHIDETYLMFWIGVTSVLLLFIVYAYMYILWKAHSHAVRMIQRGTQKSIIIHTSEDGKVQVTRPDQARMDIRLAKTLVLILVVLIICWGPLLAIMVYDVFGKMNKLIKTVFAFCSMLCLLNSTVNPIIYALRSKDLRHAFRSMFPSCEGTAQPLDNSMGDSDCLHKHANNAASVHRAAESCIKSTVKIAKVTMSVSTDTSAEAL
In words: Agonist-induced GTP binding (GTPγ35S) assay at CB1, Example 8. The assay is classed as biochemical. The following applies: IC50 at CB1, determined as described in Example 8; read-out: IC50. Summed up:
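Membranes from Sf9 cells co-expressing hCB1 and heterotrimeric G-protein (10 μg protein) in Tris pH 7.4 buffer with 5 μM GDP. Test compounds (10^−10–10^−5 M) competed against 1 nM CP55,940 with […] GTPγ35S, 60 min at room temperature. Filter-bound radioactivity by scintillation, expressed as percent above basal.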
With `CCOC(=O)c1ccc(NC(=O)Nc2ccc(OC(C)C)cc2)cc1` [Compound 675, ethyl 4-({[(4-isopropoxyphenyl)amino]carbonyl}amino)benzoate], the IC50 is < 2000 nM. Still for that read-out and setting: then `CCOC(=O)c1cccc(NC(=O)Nc2ccc(CCO)cc2)c1` [Compound 753, ethyl 3-[({[4-(2-hydroxyethyl)phenyl]amino}carbonyl)amino] benzoate], with < 2000 nM. The same measure, in the same setting: then `Cc1ccc(F)cc1NC(=O)Nc1ccc(OC(C)C)cc1` [Compound 698, 1-(5-fluoro-2-methylphenyl)-3-(4-isopropoxyphenyl)urea], with < 2000 nM. For `CCc1ccc(NC(=O)Nc2cc(F)cc(F)c2)cc1` [Compound 657, 1-(3,5-difluorophenyl)-3-(4-ethylphenyl)urea], the IC50 is < 2000 nM. The same measure, in the same setting: then `CC(=O)c1ccc(NC(=O)Nc2ccc(C(=O)OC(C)C)cc2)cc1` [Compound 514, isopropyl 4-({[(4-acetylphenyl)amino]carbonyl}amino)benzoate], with < 2000 nM; and `CCCc1ccc(NC(=O)Nc2ccc(C)c(C)c2)cc1` [Compound 654, 1-(3,4-dimethylphenyl)-3-(4-propylphenyl)urea], with < 2000 nM. Still for that read-out and setting: to `Cc1ccc(NC(=O)Nc2ccc(Cl)cc2)cc1Cl` [Compound 445, 1-(3-chloro-4-methylphenyl)-3-(4-chlorophenyl)urea] belongs < 2000 nM; to `Cc1cccc(NC(=O)Nc2cccc(OC(C)C)c2)c1` [Compound 297, 1-(3-isopropoxyphenyl)-3-(3-methylphenyl)urea], < 2000 nM; to `CCCc1ccc(NC(=O)Nc2ccc(Cl)cc2)cc1` [Compound 336, 1-(4-chlorophenyl)-3-(4-propylphenyl)urea], < 2000 nM. Still for that read-out and setting: to `CCn1nnc(-c2ccc(NC(=O)Nc3cccc(OC(F)F)c3)cc2)n1` [Compound 792, N-[3-(difluoromethoxy)phenyl]-N′-[4-(2-ethyl-2H-tetrazol-5-yl)phenyl]urea] belongs < 2000 nM; to `CCOC(=O)c1ccc(NC(=O)Nc2ccc(CO)cc2)cc1` [Compound 749, ethyl 4-[({[4-(hydroxymethyl)phenyl]amino}carbonyl)amino] benzoate], < 2000 nM.

As to `O=C(Nc1ccc(OC(F)F)cc1)Nc1ccc([N+](=O)[O-])cc1` [Compound 569, 1-[4-(difluoromethoxy)phenyl]-3-(4-nitrophenyl)urea], the IC50 was < 2000 nM.

As for `CCOc1cccc(NC(=O)Nc2ccc(C)cc2C)c1` [Compound 703, 1-(2,4-dimethylphenyl)-3-(3-ethoxyphenyl)urea], the IC50 was < 2000 nM. Still for that read-out and setting: then `O=C(Nc1ccccc1)Nc1ccc(OC(F)F)cc1` [Compound 306, N-[4-(difluoromethoxy)phenyl]-N′-phenylurea], with < 2000 nM. On the same count and under the same terms, to `CC(=O)c1ccc(NC(=O)Nc2ccc(Cl)nc2)cc1` [Compound 637, 1-(4-acetylphenyl)-3-(6-chloropyridin-3-yl)urea] belongs < 2000 nM. For `CCC(=O)c1ccc(NC(=O)Nc2cccc(CC)c2)cc1` [Compound 491, 1-(3-ethylphenyl)-3-(4-propionylphenyl)urea], the IC50 was < 2000 nM. The same measure, in the same setting: to `CCOC(=O)c1cccc(NC(=O)Nc2cccc(OCC)c2)c1` [Compound 661, ethyl 3-({[(3-ethoxyphenyl)amino]carbonyl}amino)benzoate] belongs < 2000 nM; to `CCCc1ccc(NC(=O)Nc2cccc(OC)c2)cc1` [Compound 524, 1-(3-methoxyphenyl)-3-(4-propylphenyl)urea], < 2000 nM. For the compound `CCOC(=O)c1ccc(NC(=O)Nc2ccc(F)c(F)c2)cc1` [Compound 739, ethyl 4-({[(3,4-difluorophenyl)amino]carbonyl}amino)benzoate], the IC50 was < 2000 nM.

In the case of `CCCc1ccc(NC(=O)Nc2cccc(C(=O)OCC)c2)cc1` [Compound 652, ethyl 3-({[(4-propylphenyl)amino]carbonyl}amino)benzoate], the IC50 is < 2000 nM. Same read-out and setting: to `Cc1ccc(NC(=O)Nc2cccc(OC(F)F)c2)cc1C` [Compound 695, 1-[3-(difluoromethoxy)phenyl]-3-(3,4-dimethylphenyl)urea] belongs < 2000 nM. Consider `CCOC(=O)c1cccc(NC(=O)Nc2ccc(C)c(Cl)c2)c1` [Compound 770, ethyl 3-({[(3-chloro-4-methylphenyl)amino]carbonyl}amino)benzoate], for which the IC50 is < 2000 nM. On the same count and under the same terms, then `CCOc1ccc(NC(=O)Nc2ccc(Cl)cc2)cc1` [Compound 390, 1-(4-chlorophenyl)-3-(4-ethoxyphenyl)urea], with < 2000 nM; and `COc1ccc(NC(=O)Nc2ccc(Cl)cc2)cc1` [Compound 383, 1-(4-chlorophenyl)-3-(4-methoxyphenyl)urea], with < 2000 nM; and `O=C(Nc1ccc(OC(F)F)cc1)Nc1cccc(Br)c1` [Compound 520, 1-(3-bromophenyl)-3-[4-(difluoromethoxy)phenyl]urea], with < 2000 nM.

In the case of `CCOC(=O)c1cccc(NC(=O)Nc2ccc(COC)cc2)c1` [Compound 669, ethyl 3-[({[4-(methoxymethyl)phenyl]amino}carbonyl)amino]benzoate], the IC50 is < 2000 nM. The same measure, in the same setting: then `CCOc1cccc(NC(=O)Nc2ccc(OC)cc2)c1` [Compound 542, 1-(3-ethoxyphenyl)-3-(4-methoxyphenyl)urea], with < 2000 nM.

Staying with this assay, now noted: Table I; IC50 at CB1, GTP binding with 1 nM CP55,940; read-out: IC50.
With `CCCc1ccc(NC(=O)Nc2ccc(CC)cc2)cc1` [Compound 20, N-(4-ethylphenyl)-N′-(4-propylphenyl)urea], the IC50 was < 2000 nM. Same read-out and setting: then `CCc1ccc(NC(=O)Nc2ccc(Cl)cc2)cc1` [Compound 25, N-(4-chlorophenyl)-N′-(4-ethylphenyl)urea], with < 2000 nM. Still for that read-out and setting: then `CCc1ccc(NC(=O)Nc2cccc(F)c2)cc1` [Compound 58, N-(4-ethylphenyl)-N′-(3-fluorophenyl)urea], with < 2000 nM.

The same assay, now with this note: Table II; IC50 at CB1, GTP binding with 1 nM CP55,940; read-out: IC50.
For `N#Cc1cncc(-c2cccc(NC(=O)Nc3ccc(OC(F)F)cc3)c2)c1` [Compound 73, N-[3-(5-cyanopyridin-3-yl)phenyl]-N′-[4-(difluoromethoxy)phenyl]urea], the IC50 was < 2000 nM. On the same count and under the same terms, then `O=C(Nc1ccc(OC(F)F)cc1)Nc1cccc(-c2ccccc2)c1` [Compound 98, N-biphenyl-3-yl-N′-[4-(difluoromethoxy)phenyl]urea], with < 2000 nM. The same measure, in the same setting: then `COc1cccc(NC(=O)Nc2ccc(C(C)=O)cc2)c1` [Compound 258, N-(4-acetylphenyl)-N′-(3-methoxyphenyl)urea], with < 2000 nM; and `COc1cc(NC(=O)Nc2ccc(OC(F)F)cc2)cc(C(F)(F)F)c1` [Compound 87, N-[4-(difluoromethoxy)phenyl]-N′-[3-methoxy-5-(trifluoromethyl)phenyl]urea], with < 2000 nM; and `O=C(Nc1ccc(OC(F)F)cc1)Nc1ccc(-c2ccccc2)cc1` [Compound 99, N-biphenyl-4-yl-N′-[4-(difluoromethoxy)phenyl]urea], with < 2000 nM.

For `O=C(Nc1ccc(OC(F)F)cc1)Nc1cccc(-c2cocn2)c1` [Compound 138], the IC50 was < 2000 nM.

As to `CC(C)Oc1cccc(NC(=O)Nc2cccc(F)c2)c1` [Compound 211, N-(3-fluorophenyl)-N′-(3-isopropoxyphenyl)urea], the IC50 is < 2000 nM. On to `CC(=O)c1ccc(NC(=O)Nc2ccc(C(C)C)cc2)cc1` [Compound 196, N-(4-acetylphenyl)-N′-(4-isopropylphenyl)urea], for which the IC50 was < 2000 nM.

As to `CC(=O)c1ccc(NC(=O)Nc2ccc(OC(C)C)cc2)cc1` [Compound 282, N-(4-acetylphenyl)-N′-(4-isopropoxyphenyl)urea], the IC50 was < 2000 nM. On the same count and under the same terms, to `CC(C)Oc1ccc(NC(=O)Nc2ccc(Cl)cc2)cc1` [Compound 252, N-(4-chlorophenyl)-N′-(4-isopropoxyphenyl)urea] belongs < 2000 nM; to `CCOc1ccc(NC(=O)Nc2ccccc2)cc1` [Compound 223, N-(4-ethoxyphenyl)-N′-phenylurea], < 2000 nM; to `CCCc1ccc(NC(=O)Nc2cccc(CC)c2)cc1` [Compound 183, N-(3-ethylphenyl)-N′-(4-propylphenyl)urea], < 2000 nM. The same measure, in the same setting: then `COCc1ccc(NC(=O)Nc2cccc(F)c2)cc1` [Compound 208, N-(3-fluorophenyl)-N′-[4-(methoxymethyl)phenyl]urea], with < 2000 nM; and `Cc1ccc(NC(=O)Nc2cccc(OC(F)F)c2)cc1` [Compound 218, N-[3-(difluoromethoxy)phenyl]-N′-(4-methylphenyl)urea], with < 2000 nM. Still for that read-out and setting: then `Cc1cccc(NC(=O)Nc2ccc(-n3cnc(Cl)c3Cl)cc2)c1` [Compound 165, N-{4-(4,5-dichloro-1H-imidazol-1-yl)phenyl]-N′-(3-methylphenyl)urea], with < 2000 nM; and `N#Cc1cccc(NC(=O)Nc2cccc(OC(F)F)c2)c1` [Compound 284, N-(3-cyanophenyl)-N′-[3-(difluoromethoxy)phenyl]urea], with < 2000 nM. With `COCc1ccc(NC(=O)Nc2cccc(C#N)c2)cc1` [Compound 269, N-(3-cyanophenyl)-N′-[4-(methoxymethyl)phenyl]urea], the IC50 is < 2000 nM. Same read-out and setting: to `CCc1ccccc1NC(=O)Nc1cccc(OC(F)F)c1` [Compound 227, N-[3-(difluoromethoxy)phenyl]-N′-(2-ethylphenyl)urea] belongs < 2000 nM; to `N#Cc1cc(NC(=O)Nc2ccc(OC(F)F)cc2)ccc1F` [Compound 139, N-(3-cyano-4-fluorophenyl)-N′-[4-(difluoromethoxy)phenyl]urea], < 2000 nM; to `COc1ccc(-c2cccc(NC(=O)Nc3ccc(OC(F)F)cc3)c2)nc1Cl` [Compound 123, N-[3-(6-chloro-5-methoxypyridin-2-yl)phenyl]-N′-[4-(difluoromethoxy)phenyl]urea], < 2000 nM.
